Drawing on patent publication US20250066389A1, “HETEROCYCLIC AMIDES AND METHODS OF USING THE SAME” (Rgenta Therapeutics, Inc., priority 2021, published 2025), this text covers activation and IC50 for 52 compounds.

A word on the IC50: it is the concentration needed to halve the response being measured. Read a high IC50 as lower potency.

Where a name gives a salt, the structure may show the parent alone. Bounds are passed on as bounds.

The subject of one assay is PMS1. As to the kind of experiment: Mini-Gene Reporter Assay—PMS1 (firefly luciferase mini-gene reporter transiently transfected into HEK293 cells). The assay is classed as cell-based. To be noted: Homo sapiens; at 5 uM; mini-gene firefly luciferase reporter in HEK293 cells; read-out: PMS1 % Effect at 5 uM. The procedure, abridged: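 Luminescence (RLU) read-out of exon inclusion: compound dilutions, tested in duplicate, act on transiently transfected HEK293 cells carrying a firefly luciferase reporter fused downstream of the PMS1 skipped-exon region. Potency derived by Levenberg-Marquardt curve fitting, with percent effect at 5 μM.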
For the compound `CCOc1cc2nn(C)cc2cc1C(=O)Nc1cnc(N[C@@H]2CNC[C@@H](F)C2)nc1` [Compound 386], the activation at 5 µM was below 50%. On the same count and under the same terms, next, `CCOc1cn2nc(C)cc2cc1C(=O)Nc1cnc(N(C)CCN2CCNCC2)nc1` [Compound 582]: below 50%; `CCOc1cn2nc(C)cc2cc1C(=O)Nc1cnc(N2CCC(CC[C@@H]3CCCN3)CC2)nc1` [Compound 615]: below 50%; `CCOc1cc2nn(C)cc2cc1C(=O)Nc1ccc(C2=CC(C)(C)NCC2)nn1` [Compound 756, N-(6-(6,6-dimethyl-1,2,3,6-tetrahydropyridin-4-yl)pyridazin-3-yl)-6-ethoxy-2-methyl-2H-indazole-5-carboxamide formate]: above 75%. On to `CCOc1cn2nc(C)cc2cc1C(=O)Nc1cnc(N2CCOC3(CCNC3)C2)cn1` (stereo not shown) [Compound 529], for which the activation at 5 µM was in the range of 50 to 75%. For the compound `CCOc1cc2nc(C)cn2cc1C(=O)Nc1cnc(N[C@H]2CCNC2)cn1` [Compound 696], the activation at 5 µM was in the range of 50 to 75%. The same measure, in the same setting: to `CCOc1cn2nc(C)cc2cc1C(=O)Nc1cnc(N2CCC3CCNCC3C2)nc1` (stereo not shown) [Compound 611] belongs below 50%; to `CCOc1cc2nn(C)cc2cc1C(=O)Nc1cnc(N2CCCC3(CCNC3)C2)nc1` (stereo not shown) [Compound 441], below 50%. On the same count and under the same terms, next, `CCOc1cn2nc(C)cc2cc1C(=O)Nc1cnc(N2CCCC3(CCNC3)C2)nc1` (stereo not shown) [Compound 578]: below 50%. The same measure, in the same setting: to `CCOc1cn2nc(C)cc2cc1C(=O)Nc1cnc(N2C[C@H]3CNC[C@H]3C2)nc1` [Compound 590] belongs above 75%. For `CCOc1cn2nc(C)cc2cc1C(=O)Nc1cnc(N2C[C@H]3CNC[C@H]3C2)cn1` [Compound 547], the activation at 5 µM is above 75%. On the same count and under the same terms, next, `CCOc1cc2nn(C)cc2cc1C(=O)Nc1cnc(N2CCC(NC)C2)nc1` (stereo not shown) [Compound 463]: above 75%; `CCOc1cc2nn(C)cc2cc1C(=O)Nc1cnc(N2CCC(N)(CC)CC2)nc1` [Compound 410]: above 75%; `COCC1CNCCN1c1ccc(NC(=O)c2cn3cc(C)nc3cc2OC)c(F)c1` (stereo not shown) [Compound 144, N-(2-fluoro-4-(2-(methoxymethyl)piperazin-1-yl)phenyl)-7-methoxy-2-methylimidazo[1,2-a]pyridine-6-carboxamide]: 50 to 75%.

For `CCOc1cc2nn(C)cc2cc1C(=O)Nc1cnc(N2CCN[C@@H](C)C2)nc1` [Compound 480], the activation at 5 µM is above 75%. As to `CCOc1cc2nn(C)cc2cc1C(=O)Nc1cnc(N2CC(NC)C3(CC3)C2)cn1` (stereo not shown) [Compound 316], the activation at 5 µM lay in the range of 50 to 75%. On to `CCOc1cn2nc(C)cc2cc1C(=O)Nc1cnc(N2CCC(COC3CCNC3)CC2)nc1` (stereo not shown) [Compound 618], for which the activation at 5 µM was below 50%. Take `CCOc1cc2nn(C)cc2cc1C(=O)Nc1ccc(N2CCN[C@H](C)C2)nn1` [Compound 750, (R)-6-ethoxy-2-methyl-N-(6-(3-methylpiperazin-1-yl)pyridazin-3-yl)-2H-indazole-5-carboxamide hydrochloride]: the activation at 5 µM is above 75%.

Take `CCOc1cc2nn(C)cc2cc1C(=O)Nc1cnc(NC[C@H]2C[C@@](F)(CN)C2)cn1` [Compound 308]: the activation at 5 µM was below 50%. For the compound `CCOc1cn2nc(C)cc2cc1C(=O)Nc1cnc(N2CCCC(C)(CN)C2)cn1` (stereo not shown) [Compound 522], the activation at 5 µM is below 50%. With `CCOc1cn2nc(C)cc2cc1C(=O)Nc1cnc(N2CCC(C3NCC3(C)C)CC2)nc1` (stereo not shown) [Compound 606], the activation at 5 µM is below 50%. As for `CCOc1cn2nc(C)cc2cc1C(=O)Nc1cnc(NCC(N)c2ccc(F)cc2)nc1` (stereo not shown) [Compound 570], the activation at 5 µM was below 50%. Still for that read-out and setting: next, `CCOc1cc2nn(C)cc2cc1C(=O)Nc1cnc(N2CC(C)NCC2C)nc1` (stereo not shown) [Compound 453]: 50 to 75%; `CCOc1cc2nn(C)cc2cc1C(=O)Nc1cnc(NCC2C=CCN2)nc1` (stereo not shown) [Compound 385]: below 50%. The same measure, in the same setting: to `CCOc1cc2nn(C)cc2cc1C(=O)Nc1cnc(NC2CCCNC2C)nc1` (stereo not shown) [Compound 415] belongs below 50%; to `CCCNCCNc1cnc(NC(=O)c2cc3cn(C)nc3cc2OCC)cn1` [Compound 365], above 75%. Same read-out and setting: next, `CCOc1cn2nc(C)cc2cc1C(=O)Nc1cnc(N2CCOC3(CCCNC3)C2)cn1` (stereo not shown) [Compound 510]: below 50%; `CCOc1cc2nn(C)cc2cc1C(=O)Nc1cnc(N2CC3(CNCCO3)C2)nc1` [Compound 436]: below 50%. With `CCOc1cn2nc(C)cc2cc1C(=O)Nc1cnc(N2CCN[C@@H](C)C2)cn1` [Compound 701, 6-ethoxy-2-methyl-N-{5-[(3S)-3-methylpiperazin-1-yl]pyrazin-2-yl}pyrazolo[1,5-a]pyridine-5-carboxamide], the activation at 5 µM is above 75%. On to `COc1cc2nc(C)cn2cc1C(=O)Nc1ccc(N2CCC3(CNC3)C2)cc1F` [Compound 152, N-(2-fluoro-4-(2,6-diazaspiro[3.4]octan-6-yl)phenyl)-7-methoxy-2-methylimidazo[1,2-a]pyridine-6-carboxamide], for which the activation at 5 µM was below 50%.

With `CCOc1cn2nc(C)cc2cc1C(=O)Nc1cnc(N2CCC(NC)C2)cn1` (stereo not shown) [Compound 546], the activation at 5 µM is above 75%. With `CCOc1cc2nn(C)cc2cc1C(=O)Nc1cnc(N2CC(NC)C(C)(C)C2)nc1` (stereo not shown) [Compound 412], the activation at 5 µM is below 50%. Regarding `CCOc1cc2nn(C)cc2cc1C(=O)Nc1cnc(N2C[C@H]3CNC[C@H]3C2)cn1` [Compound 363], the activation at 5 µM was above 75%.

The same assay, now with this note: Homo sapiens; mini-gene firefly luciferase reporter in HEK293 cells.
Regarding `CCOc1cc2nc(C)cn2cc1C(=O)Nc1ccc(N2CC[C@@H]3CNC[C@@H]3C2)nn1` (racemic) [Compound 246], the IC50 was 1000 to 10000 nM. On the same count and under the same terms, to `CCOc1cc2nc(C)cn2cc1C(=O)Nc1ccc(N2CCC3(CCCNC3)C2)nn1` (stereo not shown) [Compound 265] belongs 1000 to 10000 nM; to `COc1cc2nc(C)cn2cc1C(=O)Nc1ccc(N2CC[C@@H]3NCC[C@@H]3C2)cc1F` [Compound 629], below 1000 nM; to `CCOc1cc2nc(C)cn2cc1C(=O)Nc1ccc(N2CCNC3(CC3)C2)nn1` [Compound 210, N-(6-4,7-diazaspiro[2.5]octan-7-ylpyridazin-3-yl)-7-ethoxy-2-methylimidazo[1,2-a]pyridine-6-carboxamide], below 1000 nM. For the compound `CCOc1cc2nc(C)cn2cc1C(=O)Nc1ccc(N2CCNC(C)CC2)nn1` (stereo not shown) [Compound 257], the IC50 was 1000 to 10000 nM. Still for that read-out and setting: to `CCOc1cc2nn(C)cc2cc1C(=O)Nc1cnc(N2CCN[C@@H](CC)C2)cn1` [Compound 716, (S)-6-ethoxy-N-(5-(3-ethylpiperazin-1-yl)pyrazin-2-yl)-2-methyl-2H-indazole-5-carboxamide HCl Salt] belongs below 1000 nM. On the same count and under the same terms, next, `CCOc1cc2nc(C)cn2cc1C(=O)Nc1ccc(N2C[C@@H](C)N(C)[C@@H](C)C2)nn1` [Compound 740, 7-ethoxy-2-methyl-N-(6-((3S,5R)-3,4,5-trimethylpiperazin-1-yl)pyridazin-3-yl)imidazo[1,2-a]pyridine-6-carboxamide]: 1000 to 10000 nM. On to `CCOc1cc2nn(C)cc2cc1C(=O)Nc1cnc(N2CCNC(C)(C)C2)cn1` [Compound 734, N-(5-(3,3-dimethylpiperazin-1-yl)pyrazin-2-yl)-6-ethoxy-2-methyl-2H-indazole-5-carboxamide hydrochloride], for which the IC50 lay in the range of 1000 to 10000 nM. `COc1cc2nc(C)cn2cc1C(=O)Nc1ccc(N2CCN[C@@H](C)C2)nn1` [Compound 713, (S)-7-methoxy-2-methyl-N-(6-(3-methylpiperazin-1-yl)pyridazin-3-yl)imidazo[1,2-a]pyridine-6-carboxamide hydrochloride] showed an IC50 below 1000 nM. For the compound `CCOc1nc2nc(C)cn2cc1C(=O)Nc1ccc(N2C[C@@H](C)N[C@@H](C)C2)nn1` [Compound 714, N-(6-((3R,5S)-3,5-dimethylpiperazin-1-yl)pyridazin-3-yl)-7-ethoxy-2-methylimidazo[1,2-a]pyrimidine-6-carboxamide hydrochloride], the IC50 was below 1000 nM. `CCOc1nc2nc(C)cn2cc1C(=O)Nc1ccc(N2CCNC3(CC3)C2)nn1` [Compound 725, N-(6-(4,7-diazaspiro[2.5]octan-7-yl)pyridazin-3-yl)-7-ethoxy-2-methylimidazo[1,2-a]pyrimidine-6-carboxamide formic acid] displayed an IC50 of 1000 to 10000 nM. Same read-out and setting: to `CCOc1cc2nn(C)cc2cc1C(=O)Nc1ccc(N2CCN(C)[C@@H](C)C2)nn1` [Compound 299, (S)—N-(6-(3,4-dimethylpiperazin-1-yl)pyridazin-3-yl)-6-ethoxy-2-methyl-2H-indazole-5-carboxamide hydrochloride] belongs 1000 to 10000 nM; to `CCOc1cc2nc(C)cn2cc1C(=O)Nc1ccc(N2CCC3(CCNC3)CC2)nn1` [Compound 275], 1000 to 10000 nM; to `COc1cc2nn(C)cc2cc1C(=O)Nc1ccc(N2CCNCC2)cc1F` [Compound 115, N-(2-fluoro-4-(piperazin-1-yl)phenyl)-6-methoxy-2-methyl-2H-indazole-5-carboxamide HCl Salt], below 1000 nM. On the same count and under the same terms, next, `CCOc1cc2nc(C)cn2cc1C(=O)Nc1ccc(N2C[C@@H]3CNC[C@]3(C)C2)nn1` (racemic) [Compound 253]: 1000 to 10000 nM; `CCOc1cc2nc(C)cn2cc1C(=O)Nc1ccc(N2C3CCCC2CNC3)nn1` [Compound 238]: 1000 to 10000 nM; `Cc1cn2cc(C(=O)Nc3ccc(N4CCN[C@@H](C)C4)nn3)nc(C)c2n1` [Compound 124, (S)-2,8-dimethyl-N-(6-(3-methylpiperazin-1-yl)pyridazin-3-yl)imidazo[1,2-a]pyrazine-6-carboxamide hydrochloride]: 1000 to 10000 nM. The same measure, in the same setting: next, `CCOc1cc2nc(C)cn2cc1C(=O)Nc1ccc(N2CC3=C(CNC3)C2)nn1` [Compound 229]: below 1000 nM; `COc1cc2nn(C)cc2cc1C(=O)Nc1ccc(N2CCNCC2)nn1` [Compound 123, 6-methoxy-2-methyl-N-(6-(piperazin-1-yl)pyridazin-3-yl)-2H-indazole-5-carboxamide hydrochloride]: 1000 to 10000 nM.
